From patent publication US12532889B2, “Herbicidal compositions comprising glufosinate” (BASF SE, priority 2023, dated 2026)
Values joined by “and” are separate entries in the source; they are usually repeats but may differ in a detail not shown here. Equal entries are not always repeated.

What was measured:
Assay in all cases: Post-emergence application in field trials (Example A)
Type in all cases: in vivo
[1] = system: DIGSA (Digitaria sanguinalis); details: height 10-15 cm
Experimental: (§1) In the examples below, using the method of S. R. Colby (1967) “Calculating synergistic and antagonistic responses of herbicide combinations”, Weeds 15, p. 22ff., the value E, which is expected if the activity of the individual active compounds is only additive, was calculated:
(§2) [formula] • where • X=percent activity using active herbicide A at an application rate a; • Y=percent activity using active herbicide B (e.g. glufosinate) at an application rate b; • E=expected activity (in %) by A+B at application rates a+b.
(§3) If the value found experimentally is higher than the value E calculated according to Colby, a synergistic effect is present.
(§4) On field test sites, natural weed infestation or seeded weeds were treated post-emergence of the weeds.
(§5) In the field trials, the weeds were treated as indicated below.
(§6) In the following experiments, the herbicidal activity for the individual herbicidal compositions (solo and mixture applications) was assessed at the indicated days after treatment (DAT). The assessments for the damage on undesired weeds caused by the composition was carried out using a scale from 0 to 100%, compared to the untreated control plants. Here, 0 means no damage and 100 means complete destruction of the plants.

[2] = system: HORVW (Hordeum vulgare (winter barley)); details: growth stage 23-29, height 20-25 cm
Experimental: as §1, §2, §3, §4, §5, §6

[3] = system: ECHCG (Echinocloa crus-galli); details: growth stage 23-30, height 15-20 cm
Experimental: as §1, §2, §3, §4, §5, §6

GLXMA (Glycine max) = details: 42 DAT, growth stage 13, height 5-10 cm
Experimental: as §1, §2, §3, §4, §5, §6

[4] = system: LOLMU (Lolium multiflorum); details: growth stage 22-25, height 20-25 cm
Experimental: as §1, §2, §3, §4, §5, §6

ZEAMX (Zea mays) = details: C-4 12.5 g ai/ha, growth stage 15-16
Experimental: as §1, §2, §3, §4, §5, §6

[5] = system: SETVE (Setaria verticillata); details: 42 DAT; C-4 12.5 g ai/ha; growth stage 21-23; height 8-16 cm
Experimental: as §1, §2, §3, §4, §5, §6

CC(C)N(C)S(=O)(=O)NC(=O)c1cc(-n2c(=O)cc(C(F)(F)F)n(C)c2=O)c(F)cc1Cl [C-1, saflufenacil]
% Herbicidal activity ([1]; 20 DAT, C-1 12.5 g ai/ha, growth stage 21-22): 20%
% Herbicidal activity ([2]; 7 DAT, C-1 12.5 g ai/ha): 20%
% Herbicidal activity ([3]; 7 DAT, C-1 12.5 g ai/ha): 20%
% Herbicidal activity ([3]; 28 DAT, C-1 12.5 g ai/ha): 20%
% Herbicidal activity (GLXMA (Glycine max); C-1 12.5 g ai/ha): 60%
% Herbicidal activity ([4]; 7 DAT, C-1 12.5 g ai/ha): 20%
% Herbicidal activity ([4]; 28 DAT, C-1 12.5 g ai/ha): 20%

C#CCN1C(=O)C(F)(F)Oc2cc(F)c(-n3c(=O)n(C)c(=S)n(C)c3=O)cc21 [C-4, trifludimoxazin]
% Herbicidal activity ([1]; 7 DAT, C-4 12.5 g ai/ha, growth stage 22): 40%
% Herbicidal activity ([1]; 21 DAT, C-4 12.5 g ai/ha, growth stage 22): 40%
% Herbicidal activity ([1]; 41 DAT, C-4 12.5 g ai/ha, growth stage 22): 25%
% Herbicidal activity ([1]; 42 DAT, C-4 12.5 g ai/ha, growth stage 22): 25%
% Herbicidal activity ([2]; 7 DAT, C-4 12.5 g ai/ha): 40% and 30%
% Herbicidal activity ([2]; 21 DAT, C-4 12.5 g ai/ha): 30%
% Herbicidal activity (ZEAMX (Zea mays); 21 DAT, height 27-33 cm): 30%
% Herbicidal activity (ZEAMX (Zea mays); 28 DAT, height 50-60 cm): 30%
% Herbicidal activity (ZEAMX (Zea mays); 42 DAT, height 27-33 cm): 25% and 20%
% Herbicidal activity ([3]; 7 DAT, C-4 12.5 g ai/ha): 40%
% Herbicidal activity ([3]; 21 DAT, C-4 12.5 g ai/ha): 20%
% Herbicidal activity ([3]; 28 DAT, C-4 12.5 g ai/ha): 40% and 20%
% Herbicidal activity [5]: 25%
% Herbicidal activity (GLXMA (Glycine max); C-4 12.5 g ai/ha): 60%
% Herbicidal activity ([4]; 7 DAT, C-4 12.5 g ai/ha): 40%
% Herbicidal activity ([4]; 28 DAT, C-4 12.5 g ai/ha): 30%
